Results: paper PMC8881501, “Identification of SARS-CoV-2 inhibitors targeting Mpro and PLpro using in-cell-protease assay” (Communications Biology, 2022)
Where “and” joins values, the source holds several entries; their conditions need not be identical. Identical values can stand only once. Like-named read-outs stand apart in the source and are kept apart here. Non-standard residues stand in square brackets, D forms with d. Residues, ends and D or L forms follow the SMILES beside them. Nle = CCCC[C@H](N)C(=O)O

System: SARS-CoV-2 delta variant
Assay type: cell-based
Conditions: Huh 7.5, replicates

Row | Compound | virus titer of delta variant, Fig 6B data (single drug 0.01 μM) | virus titer of delta variant, Fig 6B data (single drug 0.1 μM) | virus titer of delta variant, Fig 6B data (single drug 1 μM)
1 | N[C@@H](CC(=O)N1CCn2c(nnc2C(F)(F)F)C1)Cc1cc(F)c(F)cc1F [Sitagliptin] | 960000 and 720000 and 480000 | 720000 and 400000 and 560000 | 560000 and 720000 and 64000
2 | CCCC[C@@H](C=O)NC(=O)[C@H](CC(C)C)NC(=O)[C@H](CC(C)C)NC(C)=O [MG-101] (Ac-Leu-Leu-[Nle]-aldehyde) | 640000 and 800000 and 400000 | 400000 and 960000 and 800000 | 240000 (2×) and 160000
